Patent US20070203206A1, “2-Pyrrolidone Derivatives And Use Thereof As Factor Xa Inhibitors” (priority 2003, published 2007)
Structures can show the parent of a compound that is named as a salt.

Molecular target: T1, human Factor Xa (Homo sapiens, UniProt P00742)
T1 construct: containing human Factor Xa (final conc. Of 0.0003 U·ml-1)
Test: In vitro fluorogenic assay for inhibition of Factor Xa
Type: biochemical
Conditions: Ki value
Method: In Vitro Assay for Inhibition of Factor Xa
Compounds of the present invention were tested for their Factor Xa inhibitory activity as determined in vitro by their ability to inhibit human Factor Xa in a fluorogenic assay, using Rhodamine 110, bis-CBZ-glycylglycyl-L-arginine amide as the fluorogenic substrate. Compounds were diluted from a 10 mM stock solution in dimethylsulfoxide at appropriate concentrations. Assay was performed at room temperature using buffer consisting of: 50 mM Tris-HCl, 150 mM NaCl, 5 mM CaCl2, pH 7.4. containing human Factor Xa (final conc. Of 0.0003 U·ml-1). Compound and enzyme were preincubated for 15 min prior to addition of the substrate (final conc. of 10 μM). The reaction was stopped after 3 hrs with the addition of H-D-Phe-Pro-Arg-Chloromethylketone. […] To obtain IC50 values the data were analysed using ActivityBase® and XLfit®.
Calculation of Ki values: Ki=IC50/(1+[Substrate]/Km)
The Ki value for the above assay can be obtained by dividing the IC50 value by 1.6.

T1 sequence (P00742 235-488 limits assumed): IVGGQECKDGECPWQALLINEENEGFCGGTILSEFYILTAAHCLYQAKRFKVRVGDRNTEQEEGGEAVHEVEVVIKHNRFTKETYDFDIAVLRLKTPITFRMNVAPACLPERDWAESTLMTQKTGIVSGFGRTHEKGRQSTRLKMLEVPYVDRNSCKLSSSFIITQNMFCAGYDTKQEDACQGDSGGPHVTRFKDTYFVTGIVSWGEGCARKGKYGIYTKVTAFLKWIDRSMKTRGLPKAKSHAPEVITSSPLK
T1 sequence (P00742 41-179 partner limits assumed): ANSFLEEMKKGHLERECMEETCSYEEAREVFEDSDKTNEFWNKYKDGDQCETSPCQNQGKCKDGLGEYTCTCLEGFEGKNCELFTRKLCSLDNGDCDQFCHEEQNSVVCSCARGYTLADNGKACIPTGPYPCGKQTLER

**Q.** How did the Ki turn out when `CNCCN(C)C(=O)c1ccc(N2CCC(NS(=O)(=O)/C=C(\C)c3ccc(Cl)s3)C2=O)c(F)c1` (centres unmarked) [Example 1, 4-[3-({[(1E)-2-(5-Chloro-2-thienyl)-1-propen-1-yl]sulfonyl}amino)-2-oxo-1-pyrrolidinyl]-3-fluoro-N-methyl-N-[2-(methylamino)ethyl]benzamide] was run?
**A.** < 100 nM

**Q.** `C/C(=C\S(=O)(=O)NC1CCN(c2ccc(C(=O)N(C)Cc3ccccn3)cc2F)C1=O)c1ccc(Cl)s1` (centres unmarked) [Example 3, 4-[3-({[(1E)-2-(5-Chloro-2-thienyl)-1-propen-1-yl]sulfonyl}amino)-2-oxo-1-pyrrolidinyl]-3-fluoro-N-methyl-N-(2-pyridinylmethyl)benzamide] was tested. Which Ki did it give?
**A.** < 100 nM

**Q.** Which Ki does the source give for `C/C(=C\S(=O)(=O)NC1CCN(c2ccc(C(=O)N(C)CCc3cccnc3)cc2F)C1=O)c1ccc(Cl)s1` (centres unmarked) [Example 30, 4-[3-({[(1E)-2-(5-Chloro-2-thienyl)-1-propen-1-yl]sulfonyl}amino)-2-oxo-1-pyrrolidinyl]-3-fluoro-N-methyl-N-[2-(3-pyridinyl)ethyl]benzamide] here?
**A.** < 100 nM

**Q.** With `C/C(=C\S(=O)(=O)NC1CCN(c2ccc(C(=O)N(C)CCc3c[nH]cn3)cc2F)C1=O)c1ccc(Cl)s1` (centres unmarked) [Example 31, 4-[3-({[(1E)-2-(5-Chloro-2-thienyl)-1-propen-1-yl]sulfonyl}amino)-2-oxo-1-pyrrolidinyl]-3-fluoro-N-[2-(1H-imidazol-4-yl)ethyl]-N-methylbenzamide] as the molecule, how does the Ki read?
**A.** < 100 nM

**Q.** `COCCN(C)C(=O)c1ccc(N2CCC(NS(=O)(=O)/C=C(\C)c3ccc(Cl)s3)C2=O)c(F)c1` (centres unmarked) [Example 5, 4-[3-({[(1E)-2-(5-Chloro-2-thienyl)-1-propen-1-yl]sulfonyl}amino)-2-oxo-1-pyrrolidinyl]-3-fluoro-N-methyl-N-[2-(methyloxy)ethyl]benzamide] was tested. Which Ki did it give?
**A.** < 1000 nM

Same assay, conditions: human Factor Xa, Rhodamine 110 bis-CBZ-glycylglycyl-L-arginine amide substrate 10 μM, 15 min preincubation, room temperature, pH 7.4; Ki = IC50/1.6; read-out: Ki value

**Q.** How did the Ki turn out when `CN(CCN)C(=O)c1ccc(N2CCC(NS(=O)(=O)c3cc4ccc(Cl)cc4s3)C2=O)c(F)c1` (centres unmarked) [Example 28] was run?
**A.** < 1000 nM

**Q.** How did the Ki turn out when `C/C(=C\S(=O)(=O)NC1CCN(c2ccc(C(=O)N(C)CCN(C)C)cc2F)C1=O)c1ccc(Cl)s1` (centres unmarked) [Example 29, 4-[3-({[(1E)-2-(5-chloro-2-thienyl)-1-propen-1-yl]sulfonyl}amino)-2-oxo-1-pyrrolidinyl]-N-[2-(dimethylamino)ethyl]-3-fluoro-N-methylbenzamide formate] was run?
**A.** < 100 nM

**Q.** Which Ki does the source give for `O=C(NCc1cccnc1)c1ccc(N2CCC(NS(=O)(=O)/C=C/c3ccc(Cl)s3)C2=O)c(F)c1` (centres unmarked) [Example 9, 4-[3-({[(E)-2-(5-Chloro-2-thienyl)ethenyl]sulfonyl}amino)-2-oxo-1-pyrrolidinyl]-3-fluoro-N-(3-pyridinylmethyl)benzamide] here?
**A.** < 1000 nM

**Q.** Which Ki does the source give for `C/C(=C\S(=O)(=O)NC1CCN(c2ccc(C(=O)N(C)CCS(C)(=O)=O)cc2F)C1=O)c1ccc(Cl)s1` (centres unmarked) [Example 4, 4-[3-({[(1E)-2-(5-Chloro-2-thienyl)-1-propen-1-yl]sulfonyl}amino)-2-oxo-1-pyrrolidinyl]-3-fluoro-N-methyl-N-[2-(methylsulfonyl)ethyl]benzamide] here?
**A.** < 100 nM

**Q.** With `CN(CCc1cccnc1)C(=O)c1ccc(N2CCC(NS(=O)(=O)c3cc4ccc(Cl)cc4s3)C2=O)c(F)c1` (centres unmarked) [Example 27, 4-(3-{[(6-Chloro-1-benzothien-2-yl)sulfonyl]amino}-2-oxo-1-pyrrolidinyl)-3-fluoro-N-methyl-N-[2-(3-pyridinyl)ethyl]benzamide] as the molecule, how does the Ki read?
**A.** < 100 nM

**Q.** `CN(C)CCN(C)C(=O)c1ccc(N2CCC(NS(=O)(=O)c3cc4ccc(Cl)cc4s3)C2=O)c(F)c1` (centres unmarked) [Example 25, 4-(3-{[(6-Chloro-1-benzothien-2-yl)sulfonyl]amino}-2-oxo-1-pyrrolidinyl)-N-[2-(dimethylamino)ethyl]-3-fluoro-N-methylbenzamide formate] was tested. Which Ki did it give?
**A.** < 1000 nM

**Q.** Which Ki does the source give for `O=C(NCc1ccncc1)c1ccc(N2CCC(NS(=O)(=O)/C=C/c3ccc(Cl)s3)C2=O)c(F)c1` (centres unmarked) [Example 8, 4-[3-({[(E)-2-(5-Chloro-2-thienyl)ethenyl]sulfonyl}amino)-2-oxo-1-pyrrolidinyl]-3-fluoro-N-(4-pyridinylmethyl)benzamide] here?
**A.** < 1000 nM

**Q.** For `CNCCN(C)C(=O)c1ccc(N2CCC(NS(=O)(=O)c3cc4ccc(Cl)cc4s3)C2=O)c(F)c1` (centres unmarked) [Example 26, 4-(3-{[(6-Chloro-1-benzothien-2-yl)sulfonyl]amino}-2-oxo-1-pyrrolidinyl)-3-fluoro-N-methyl-N-[2-(methylamino)ethyl]benzamide formate], which Ki is on record?
**A.** < 100 nM

**Q.** Which Ki does the source give for `C/C(=C\S(=O)(=O)NC1CCN(c2ccc(C(=O)N(C)CCO)cc2F)C1=O)c1ccc(Cl)s1` (centres unmarked) [Example 2, 4-[3-({[(1E)-2-(5-Chloro-2-thienyl)-1-propen-1-yl]sulfonyl}amino)-2-oxo-1-pyrrolidinyl]-3-fluoro-N-(2-hydroxyethyl)-N-methylbenzamide] here?
**A.** < 1000 nM
